Tests used:
Type in all cases: in vivo, souris
leucémie L1210 = assay: Therapeutic effect on L1210 leukemia in mice, single intraperitoneal injection 24 h after intraperitoneal tumour inoculation; conditions: for Augmentation survie traitées/contrôle x 100 / Survie moyenne en jours des souris traitées ± erreur standard. / % de cellules tumorales tuées par le traitement: single i.p. injection, inoculum 10^5 L1210 cells; for % de cellules tumorales tuées par le traitement: calculated by Skipper method; for Nombre d'animaux guéris: cured = survival more than 45 days after inoculation; for index chimiothérapeutique: leucémie L1210, read from Table VI; for fraction des cellules survivantes N/No après traitement en fonction de la dose (fraction de la dose infra-létale DLo): figure 2, comparison with dérivé 34 (DIE)
Excerpt: Afin de tester l'activité antitumorale des composés décrits plus haut, on a utilisé en premier lieu des leucémies murines P388 et L1210. La leucémie P388 est considérée comme très sensible et permet une première sélection. La leucémie L1210 est plus résistante et plus sélective. Une substance ayant une grande activité sur la leucémie L1210 a une grande chance d'être active en clinique humaine (J.M. VENDITTI, Relevance of transplantable animal tumor systems to the Selection of new agents for clinical trial in pharmacologi- cal basis of cancer chemotherapy. The University of Texas ed. Williams and Wilkins, publ. 1975, Baltimore USA) .
D'autre part, la tumeur expérimentale qu'est la leucémie L1210 de la souris est en effet couramment utilisée pour l'évaluation de tous les composés antitumoraux actuellement mis en oeuvre en thérapeutique humaine, ainsi qu'il est décrit, par exemple par C.C. ZUBROD dans Proc. Nat. Acad. Sci. USA 69, 1972, p 1042-1047. Le système tumoral ainsi constitué expérimentalement permet une évaluation quantitative très précise de l'activité du composé testé, et, par conséquent aussi, une comparaison objective entre les activités respectives de différents composés, par exemple selon les méthodes décrites par R.E. SKIPPER, F.M. SCHABEL Jr. et W.S. WILCOX dans Cancer Chemother. Rep., 35, 1964, p 1-111 et 45, 1965, p 5-28.
(§1) En pratique, on a utilisé des souris ayant reçu par voie intrapéritonéale un inoculum de cellules de leucémie L1210 et ayant été, pour la moitié d'entre elles, soumises 24 heures après ladite inoculation tumorale à une injection intrapéritonéale d'une dose unique de l'un des composés à tester : l'autre moitié des souris a reçu une injection d'un volume identique d'un solvant inactif et servait de série témoin. On a réparti les souris au hasard dans chaque série expérimentale. Une première expérimentation de routine a permis de déterminer la mortalité par toxicité et de fixer ainsi les doses infra-létales.
Conformément à la convention en usage dans ce domaine, on considérait comme guéris les animaux qui survivaient plus de 45 jours après l'inoculation de cellules tumorales.
On a ainsi pu déterminer la mortalité par toxicité sous l'effet d'une injection unique de l'un des composés à différentes doses (doses infra-létales, DL 50 et DL 100) et évaluer le taux de survie du groupe d'animaux auxquels on n'avait injecté qu'une dose infra-létale d'un composé selon l'invention.
On a calculé le taux de survie à partir d'une analyse statistique des résultats expérimentaux, par comparaison avec les résultats obtenus avec la série témoin, selon les méthodes bien connues de Mann-Whitey et de Wilcoxon; le pourcentage de cellules leucémiques tuées par le traitement réalisé était calculé par la méthode décrite par H.E. SKIPPER et coll. dans les articles cités plus haut, en prenant pour base, suivant le cas, soit l'augmentation de la survie moyenne en l'absence de survivants, soit le pourcentage de survivants.
Pour l'évaluation de l'activité thérapeutique des composés selon l'invention, on a exprimé les doses dudit composé en les rapportant à la dose infra-létale […], que l'on a posée égale à 1. Cette dose infra-létale s'est en effet avérée plus facile à déterminer pour les composés de l'invention que la DL 10, dont elle est d'ailleurs très voisine et qui est habituellement prise comme référence pour l'évaluation de l'activité thérapeutique de composés à effet antitumoral (voir H.E. SKIPPER et coll., ouvrages cités).

mélanome B 16 = assay: Survival of mice bearing B 16 melanoma, identical protocol; conditions: same doses
Excerpt: as §1
(§2) En outre, ces composés présentent une forte activité sur le mélanome B 16 et la tumeur de Lewis, pour les mêmes doses, le protocole étant identique. A titre d'exemple, sur le mélanome B 16, le dérivé 41 augmente de 15 jours la survie des souris traitées; sur la tumeur de Lewis, l'augmentation de survie induite pour ce même dérivé est de 8 jours avec un survivant.

tumeur de Lewis = assay: Survival of mice bearing Lewis tumour, identical protocol; conditions: same doses
Excerpt: as §1, §2

[1] = dose 0.02 of the infra-lethal dose
[2] = dose 0.1 of the infra-lethal dose
[3] = dose 0.2 of the infra-lethal dose
[4] = dose 0.25 of the infra-lethal dose
[5] = dose 0.3 of the infra-lethal dose
[6] = dose 0.4 of the infra-lethal dose
[7] = dose 1/5 of the infra-lethal dose
[8] = dose 0.04 of the infra-lethal dose
[9] = dose 0.8 of the infra-lethal dose

For `COc1ccc2[nH]c3ccc4cc[n+](CCN5CCC(C6CCN(CC[n+]7ccc8ccc9[nH]c%10ccc(OC)cc%10c9c8c7)CC6)CC5)cc4c3c2c1` [Dérivé 34, Dichlorurede 1'1'-bis 2-(2-méthoxy-10,7-H-pyrido[4,3-c]carbazolium)éthy14,4' bispipéridine], the “Augmentation survie traitées/contrôle x 100” value (leucémie L1210; [1]) was 128, the “Survie moyenne en jours des souris traitées ± erreur standard.” value (leucémie L1210; [1]) was 12.2 ± 0.9 jours and the “% de cellules tumorales tuées par le traitement” value (leucémie L1210; [1]) was 98%. For the same compound, the “Nombre d'animaux guéris” value (leucémie L1210; [2]) was 1/15, the “Augmentation survie traitées/contrôle x 100” value (leucémie L1210; [2]) was 137 and the “Survie moyenne en jours des souris traitées ± erreur standard.” value (leucémie L1210; [2]) was 13.6 ± 2.9 jours. The “% de cellules tumorales tuées par le traitement” value (leucémie L1210; [2]) was 94.8%, the “Augmentation survie traitées/contrôle x 100” value (leucémie L1210; [3]) was 144 and the “Survie moyenne en jours des souris traitées ± erreur standard.” value (leucémie L1210; [3]) was 14.3 ± 2.6 jours. For the same compound, the “% de cellules tumorales tuées par le traitement” value (leucémie L1210; [3]) was 99.97%, the “Augmentation survie traitées/contrôle x 100” value (leucémie L1210; [4]) was 216 and the “Survie moyenne en jours des souris traitées ± erreur standard.” value (leucémie L1210; [4]) was 18.6 ± 4.5 jours. The “% de cellules tumorales tuées par le traitement” value (leucémie L1210; [4]) was 99.999%, the “Augmentation survie traitées/contrôle x 100” value (leucémie L1210; [5]) was 191 and the “Survie moyenne en jours des souris traitées ± erreur standard.” value (leucémie L1210; [5]) was 17.6 ± 4.5 jours. The “% de cellules tumorales tuées par le traitement” value (leucémie L1210; [5]) was 99.999%, the “Augmentation survie traitées/contrôle x 100” value (leucémie L1210; [6]) was 182 and the “Survie moyenne en jours des souris traitées ± erreur standard.” value (leucémie L1210; [6]) was 18.1 ± 4.5 jours. The “% de cellules tumorales tuées par le traitement” value (leucémie L1210; [6]) was 99.999%, the “% des cellules leucémiques tuées” value (leucémie L1210; [7]) was 99,97% and the “index chimiothérapeutique” value (leucémie L1210) was “extrêmement élevé”.
`Oc1ccc2[nH]c3ccc4cc[n+](CCN5CCC(C6CCN(CC[n+]7ccc8ccc9[nH]c%10ccc(O)cc%10c9c8c7)CC6)CC5)cc4c3c2c1` [Dérivé 40] was tested, and the “Augmentation survie traitées/contrôle x 100” value (leucémie L1210; [1]) was 111, the “Survie moyenne en jours des souris traitées ± erreur standard.” value (leucémie L1210; [1]) was 9.4 ± 1.2 jours and the “% de cellules tumorales tuées par le traitement” value (leucémie L1210; [1]) was 94%. For the same compound, the “Augmentation survie traitées/contrôle x 100” value (leucémie L1210; [3]) was 153, the “Survie moyenne en jours des souris traitées ± erreur standard.” value (leucémie L1210; [3]) was 12.9 ± 1.5 jours and the “% de cellules tumorales tuées par le traitement” value (leucémie L1210; [3]) was 99.47%. For the same compound, the “Augmentation survie traitées/contrôle x 100” value (leucémie L1210; [6]) was 167, the “Survie moyenne en jours des souris traitées ± erreur standard.” value (leucémie L1210; [6]) was 13.2 ± 1.9 jours and the “% de cellules tumorales tuées par le traitement” value (leucémie L1210; [6]) was 99.994%. For the same compound, the “% des cellules leucémiques tuées” value (leucémie L1210; [7]) was 99,97% and the “index chimiothérapeutique” value (leucémie L1210) was “extrêmement élevé”.
For `COc1ccc2c(c1)c1c3c[n+](CCN4CCC(C5CCN(CC[n+]6ccc7ccc8c(c7c6)c6cc(OC)ccc6n8C)CC5)CC4)ccc3ccc1n2C` [Dérivé 41, Dichlorurede 1,1' bis 2-(2-méthyl-7-méthoxy-10,7-H-pyrido [4,3-c]carbazolium) éthyl 4,4' bispipéridine], the “Augmentation survie traitées/contrôle x 100” value (leucémie L1210; [8]) was 143, the “Survie moyenne en jours des souris traitées ± erreur standard.” value (leucémie L1210; [8]) was 11.9 ± 1.2 jours and the “% de cellules tumorales tuées par le traitement” value (leucémie L1210; [8]) was 99.8%. For the same compound, the “Nombre d'animaux guéris” value (leucémie L1210; [6]) was 1/15, the “Augmentation survie traitées/contrôle x 100” value (leucémie L1210; [6]) was 140 and the “Survie moyenne en jours des souris traitées ± erreur standard.” value (leucémie L1210; [6]) was 11.8 ± 0.9 jours. The “% de cellules tumorales tuées par le traitement” value (leucémie L1210; [6]) was 99.8%, the “Augmentation survie traitées/contrôle x 100” value (leucémie L1210; [9]) was 155 and the “Survie moyenne en jours des souris traitées ± erreur standard.” value (leucémie L1210; [9]) was 12.9 ± 1.9 jours. The “% de cellules tumorales tuées par le traitement” value (leucémie L1210; [9]) was 99.97%, the “% des cellules leucémiques tuées” value (leucémie L1210; dose 1/15 of the infra-lethal dose) was 91,8% and the “index chimiothérapeutique” value (leucémie L1210) was “extrêmement élevé”. The “augmentation de la survie des souris traitées” value (mélanome B 16) was 15 jours, the augmentation de survie (tumeur de Lewis) was 8 jours and the survivant (tumeur de Lewis) was “un survivant”.
For `O=NN(CCCl)C(=O)NCCCl` [bischloréthylnitrosourée (BCNU), bischloréthylnitrosourée, reference compound], the “fraction des cellules survivantes N/No après traitement en fonction de la dose (fraction de la dose infra-létale DLo)” value (leucémie L1210) was “ne sont actives qu'à des doses bien supérieures à celles du dérivé 34”.
For `O=P1(N(CCCl)CCCl)NCCCO1` (stereo not shown) [cyclophosphamide, reference compound], the “fraction des cellules survivantes N/No après traitement en fonction de la dose (fraction de la dose infra-létale DLo)” value (leucémie L1210) was “ne sont actives qu'à des doses bien supérieures à celles du dérivé 34”.

From patent EP0008556A1, “Bis 7H pyridocarbazole derivatives and pharmaceutical compositions containing them” (ANVAR Agence Nationale de Valorisation de la Recherche, priority 1978, dated 1980)
